From US7601489B2, “Manganese ion regulation of reverse transcriptase activity and methods of modulating same” (The Johns Hopkins University, priority 2002, dated 2009)
Numbering of substitutions follows the chain as printed.

Columns and labels:
wild-type Ty1 RT = target: T1, wild-type Ty1 RT (Saccharomyces cerevisiae, UniProt P47098); test: biochemical
T1 sequence (P47098 1218-1755 limits assumed): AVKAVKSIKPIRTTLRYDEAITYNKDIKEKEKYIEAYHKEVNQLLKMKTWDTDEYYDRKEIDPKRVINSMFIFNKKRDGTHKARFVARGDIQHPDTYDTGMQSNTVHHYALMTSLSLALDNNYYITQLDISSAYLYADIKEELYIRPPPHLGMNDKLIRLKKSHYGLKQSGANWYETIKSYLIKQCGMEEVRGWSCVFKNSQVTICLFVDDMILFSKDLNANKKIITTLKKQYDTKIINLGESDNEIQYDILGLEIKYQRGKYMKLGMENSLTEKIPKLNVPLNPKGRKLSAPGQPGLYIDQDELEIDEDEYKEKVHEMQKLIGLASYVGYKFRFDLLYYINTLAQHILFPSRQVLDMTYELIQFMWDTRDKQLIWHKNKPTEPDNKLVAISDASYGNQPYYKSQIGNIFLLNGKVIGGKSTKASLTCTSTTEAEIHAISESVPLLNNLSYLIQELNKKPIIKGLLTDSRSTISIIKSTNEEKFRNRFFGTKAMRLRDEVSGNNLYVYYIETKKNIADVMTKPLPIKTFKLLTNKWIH
Description: (§1) VLP isolation and analysis. Yeast cells harboring pGTy1-H3-mhis3AI were grown in 2% galactose at 22° C. for approximately 24 hr. Cell pellets from these 0.5 L cultures were resuspended in 5 ml buffer B (Eichinger and Boeke, Cell 54: 955-966, 1988, which is incorporated herein by reference) and VLPs were isolated. […] Reactions were set up on ice, carried out for 1 hr at 22° C. and kept on ice while being spotted onto DE81 anion-exchange paper (Whatman International Ltd.; Maidstone, England).
(§2) Protein purification and analysis. Recombinant Ty1 RT (Wilhelm et al., supra, 2000) containing a cleavable N-terminal GST-tag was expressed in E. coli and purified first by affinity chromatography and then by ion exchange chromatography, as described for HIV-1 RT (Le Grice et al., Meth. Enzymol. 262: 130-44, 1995, which is incorporated herein by reference). The GST-tagged protein was eluted from a Glutathione Sepharose 4B™ gel (Amersham) gravity column with buffer (50 mM HEPES-KOH, pH 7.8, 200 mM KCl, 10% glycerol and 2 mM DTT) containing 30 mM reduced glutathione. 50 mM HEPES-KOH, pH 7.0 with 10% glycerol was added to the protein solution to lower the pH to 7.1 and the KCl concentration to 25 mM. The recombinant Ty1 RT was further purified over a Resource S™ (Amersham) cation-exchange column using a linear KCl gradient (25-500 mM). […] Purified hetero-dimeric HIV-1 RT (Le Grice et al., supra, 1995) was acquired through the AIDS Research and Reference Reagent Program, Division of AIDS, NIAID, NIH. Purified AMV RT was purchased from Roche Molecular Biochemicals (Mannheim, Germany). The RT assays performed on the purified RTs were carried out as described above, except in the presence of 20 mM KCl, and HIV-1 RT assays were incubated at 37° C. Each reaction contained 45 ng of purified recombinant Ty1 RT or 30 ng of heterodimeric HIV-1 RT.

D211N Ty1 RT = target: T2, D211N Ty1 RT (Saccharomyces cerevisiae, UniProt P47098, D1428N); test: RT assay on purified RT, metal ion competition and metal activation kinetics
T2 sequence (P47098 1218-1755 D1428N): T1 sequence (P47098 1218-1755 limits assumed) with D211N
Description: Plasmid constructions. Plasmid c24-2I was generated by ligating the Stu I -Avr II fragment (4.3 kb) of c24-2 with the Sma I—Xba I fragment (6.0 kb) of pRS415 (LEU2 CEN6; Sikorski and Hieter, Genetics 122: 19-27, 1989, which is incorporated herein by reference). To simplify the cloning of the single amino-acid-substitution mutations into the PMR1 gene, c24-2L was constructed by removing the Xho I—Nde I fragment (1.2 kb) from c24-2I, filling in the ends with Klenow (New England Biolabs; Beverly Mass.), and ligating the blunt ends to recircularize the plasmid. Alanine substitution mutations, D778A and Q783A, were generated in the native PMR1 gene by replacing the Pst I—Sal I fragment (1.1 kb) of c24-2L with the corresponding fragment harboring the respective Pmr1p substitution mutation in the YEpHR1 backbone (Wei et al., J. Biol. Chem. 275: 23927-23932, 2000, which is incorporated herein by reference). The D53A substitution mutation was introduced into c24-2L by swapping in the Xba I fragment (0.3 kb) containing the Pmr1p substitution mutation in the YEpHR1 backbone (Wei et al., supra, 1999). Recombinant Ty1 RT (Wilhelm et al., supra, 2000) was PCR amplified and subcloned into the BamH I and Xho I sites of pGEX-4T-3 (Amersham Pharmacia Biotech; Piscataway N.J.). The D211N substitution mutation was generated by replacing the Sph I-Hind III fragment (0.4 kb) of the wild-type Ty1 RT expression construct with that of pJEF724 DD-DN (Uzun and Gabriel, supra, 2001).
as §1, §2

Ty1 RT [1] = target: T3, Ty1 RT (Saccharomyces cerevisiae, UniProt P47098); conditions: for Proposed activity of Ty1 RT, same metal at A site and B site: same ion at A site and B site
T3 sequence (P47098 1218-1755 limits assumed): T1 sequence (P47098 1218-1755 limits assumed)

Ty1 VLPs = Ty1 VLPs (Saccharomyces cerevisiae, UniProt P47098)
Description: as §1

AMV RT = conditions: purified AMV RT; excess Mg^2+
Description: as §1, §2

M-MuLV RT = conditions: purified M-MuLV RT, with or without its associated RNase H
Description: as §1, §2

hetero-dimeric HIV-1 RT = hetero-dimeric HIV-1 RT (Human immunodeficiency virus type 1 group M subtype B, UniProt P04585); conditions: purified hetero-dimeric HIV-1 RT; poly(rC) template; excess Mg^2+; 37° C.
Description: as §1, §2

Ty1 RT [2] = target: Ty1 RT (Saccharomyces cerevisiae, UniProt P47098, D1428N); conditions: Mn^2+ at A site, Mg^2+ at B site; unlikely for Wt.
Sequence of Ty1 RT (Saccharomyces cerevisiae, UniProt P47098, D1428N) (P47098 1103-1755 D1428N): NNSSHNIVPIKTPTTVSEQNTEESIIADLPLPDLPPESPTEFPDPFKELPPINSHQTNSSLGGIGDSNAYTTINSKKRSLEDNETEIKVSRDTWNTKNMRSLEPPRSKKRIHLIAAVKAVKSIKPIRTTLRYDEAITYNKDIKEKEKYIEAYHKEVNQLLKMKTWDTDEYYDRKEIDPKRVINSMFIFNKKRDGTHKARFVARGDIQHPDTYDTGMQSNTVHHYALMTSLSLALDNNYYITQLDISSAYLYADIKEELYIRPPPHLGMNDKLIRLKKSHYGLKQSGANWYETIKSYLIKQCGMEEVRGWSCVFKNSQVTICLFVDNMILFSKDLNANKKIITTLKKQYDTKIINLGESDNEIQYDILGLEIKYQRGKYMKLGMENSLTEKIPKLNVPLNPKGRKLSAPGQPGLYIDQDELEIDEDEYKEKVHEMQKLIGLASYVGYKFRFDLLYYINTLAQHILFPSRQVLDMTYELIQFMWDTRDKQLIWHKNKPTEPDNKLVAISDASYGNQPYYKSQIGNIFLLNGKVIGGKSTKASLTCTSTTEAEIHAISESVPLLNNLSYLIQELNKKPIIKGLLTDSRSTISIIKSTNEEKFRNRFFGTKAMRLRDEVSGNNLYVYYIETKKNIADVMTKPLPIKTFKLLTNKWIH

[3] = Wt. Ty1 RT, fit to Hill equation
[4] = D211N Ty1 RT, fit to Hill equation

Structure (SMILES)	Kd (wild-type Ty1 RT) [mM]	Proposed divalent cation binding affinity, A site (wild-type Ty1 RT; Wt. Ty1 RT)	Proposed divalent cation binding affinity, B site (wild-type Ty1 RT; Wt. Ty1 RT)	n (Hill coefficient) of metal activation (wild-type Ty1 RT; [3])	Kd (D211N Ty1 RT) [mM]	Proposed divalent cation binding affinity, A site (D211N Ty1 RT; D211N Ty1 RT)	Proposed divalent cation binding affinity, B site (D211N Ty1 RT; D211N Ty1 RT)	n (Hill coefficient) of metal activation (D211N Ty1 RT; [4])	Proposed activity of Ty1 RT, same metal at A site and B site (Ty1 RT [1])	also measured
[Ca+2].[Cl-].[Cl-] [Ca^2+, CaCl2, reference compound]	–	–	–	–	–	–	–	–	–	Inhibition of Ty1 RT in control competition experiment (wild-type Ty1 RT; Ca^2+ substituted for Mn^2+, in presence of Mg^2+ (FIG. 4C)): no significant inhibition
[Mg+2] [Mg^2+, MgCl2]	0.13 ± 0.04	very high affinity for Mg^2+	low affinity for Mg^2+	1.7 ± 0.1	6.3 ± 0.2	very low affinity for Mg^2+	low affinity for Mg^2+	2.1 ± 0.1	high	–
[Mn+2] [Mn^2+, MnCl2]	19.9 ± 1.6	very low affinity for Mn^2+	high affinity for Mn^2+	2.3 ± 0.2	0.02 ± 0.003	very high affinity for Mn^2+	high affinity for Mn^2+	2.1 ± 0.1	low	Ratio of Mn^2+ to Mg^2+ that reduced RT activity by 50% (Ty1 VLPs; RNA-directed DNA polymerization, poly(rC) template, excess Mg^2+): 8×10^−3; Mn^2+-dependent inhibition with DNA template (Ty1 VLPs; poly(dC) substituted for poly(rC)): Mn^2+-dependent inhibition was also observed; Mn^2+-dependent inhibition of RT activity (AMV RT): Even more dramatic Mn^2+-dependent inhibition; Effect of Mn^2+ on RT activity (M-MuLV RT): Increased activity at low Mn^2+ concentrations; Ratio of Mn^2+ to Mg^2+ that reduced RT activity by 50% (hetero-dimeric HIV-1 RT): 7×10^−4; kcat of metal activation (wild-type Ty1 RT; [3]): 0.000156 ± 1.9e-05 s⁻¹; Mn^2+-dependent inhibition with DNA template (wild-type Ty1 RT; purified recombinant Ty1 RT, poly(dC) substituted for poly(rC)): Mn^2+-dependent inhibition was also observed; Ratio of Mn^2+ to Mg^2+ that reduced RT activity by 50% (wild-type Ty1 RT; purified recombinant Ty1 RT, poly(rC) template, excess Mg^2+): 1×10^−3; Ratio (Mn^2+ concentration to Mg^2+ concentration) at which the increase in activity peaks (D211N Ty1 RT; D211N RT, Mn^2+ added in presence of Mg^2+): 0.02; kcat of metal activation (D211N Ty1 RT; [4]): 0.000158 ± 8.3e-06 s⁻¹; Inhibition by increasing concentrations of Mn2+ (D211N Ty1 RT; D211N Ty1 RT, printed: in the presence of excess Mn^2+ (FIG. 4D)): not inhibited; Proposed activity of Ty1 RT, Mg^2+ at A site and Mn^2+ at B site (Ty1 RT [1]; Mn^2+ at B site, Mg^2+ at A site, unlikely for D211N): low; Proposed activity of Ty1 RT, Mn^2+ at A site and Mg^2+ at B site (Ty1 RT [2]): high
